Results: PMC12459020, “Chemical Probes that Target a Dissociative LuxR-Type Quorum Sensing Receptor in Gram-Negative Bacteria” (ACS Chemical Biology, 2025)
Where two headings read alike, the source gives them in different places.

Assays:
EsaR [1] = molecular target: T1, EsaR (Pantoea stewartii subsp. stewartii, UniProt P54293); experiment: cell-based; conditions: for activation at 100 µM / inhibition at 100 µM: 3.5 h; for activation at 100 µM: read-out: EsaR-activated (pesaS) [%] agonism; for inhibition at 100 µM: read-out: EsaR-activated (pesaS) antagonism
T1 construct: expressed in transfected cells; host or cells: E. coli JLD271 (K12 ΔsdiA), arabinose-induced pJN105-esaR
Description: (§1) EsaR transcriptional activation and repression were examined using E. coli and P. stewartii reporters (strains and plasmids listed in Table S1; see Methods section for assay details). […] We constructed reporters in E. coli based on previously reported EsaR reporters (Table S1). Each strain contained an EsaR expression plasmid (pJN105-esaR) and a reporter plasmid with either an EsaR-activated promoter (pesaS) or an EsaR-repressed promoter (pesaR) upstream of luxABCDE or GFP.
(§2) Gibson assembly was used to create all constructs. Plasmid pJN105-esaR was created by amplifying esaR from pAC-esaR and inserting it into pJN105. pesaSlux was created by inserting pesaS, amplified from pPesaR-AC:gfp, into the pCS-pesaRlux backbone. The pesaR promoter was amplified from pCS-pesaRlux and inserted into the pPesaR-AC:gfp backbone to create pesaR:GFP. P. stewartii reporter strains were created by transforming pesaR:GFP or pPesaR-AC:gfp into ESN51 by conjugation using E. coli S17 λpir as the donor strain. See SI for details of E. coli ExpR2 reporter construction.
(§3) Overnight cultures were diluted 1:10 in LB medium with appropriate antibiotics and grown at 37 °C (200 rpm) to an OD600 of 0.22–0.27 before induction with 4 mg mL^–1 arabinose. OD600 was measured by placing 200 μL of culture into a 96-well plate and reading optical density using the BioTek Synergy 2 plate reader. Assays were performed in technical triplicate in clear-bottom, white and clear-bottom, black 96-well microtiter plates (Corning Costar 3903 and 3904) for luminescence and fluorescence reporters, respectively. Compounds were dissolved in DMSO, and 2 μL of this stock, or DMSO as a negative control, was added to each well prior to adding 198 μL of induced culture. Plates were incubated at 37 °C (200 rpm) for 3.5 h. Each well was mixed by pipetting before reading OD600 and either luminescence or fluorescence. Single-point screens were performed with one or two biological replicates, and all dose–response curves were performed in biological triplicate. EC50 values were calculated based on a nonlinear regression of log(concentration) vs response (three parameters) using GraphPad Prism 9 software.

ExpR1 = conditions: cited from earlier work; for ExpR1 antagonism: 5 µM compound against 5 µM OHHL, negative values indicate potential activators, ref 6 (SI; Palmer et al., 2011); for ExpR1 [%] (agonism, activation): compounds at 200 μM, cellulase activity in P. versatile AC5117, ref Palmer et al., 2011 (main ref 44, SI ref 6)
EsaR [2] = molecular target: T1, EsaR; experiment: cell-based; conditions: for activation at 100 µM / inhibition at 100 µM: 3.5 h; for activation at 100 µM: read-out: EsaR-repressed (pesaR) [%] agonism; for inhibition at 100 µM: read-out: EsaR-repressed (pesaR) antagonism
Description: as §1, §2, §3

ExpR2 = conditions: cited from earlier work; for ExpR2 antagonism (percent inhibition): 5 µM compound against 5 µM OHHL, negative values indicate potential activators; for ExpR2 [%] (agonism, percent activation): compounds at 200 μM, cellulase activity in P. versatile AC5099, ref Palmer et al., 2011 (main ref 44, SI ref 6)
LuxR = conditions: cited from earlier work; for LuxR antagonism: 5 µM compound against 5 µM OHHL, negative values indicate potential activators, ref 6 (SI; Palmer et al., 2011); for LuxR [%] (agonism, activation): compounds at 200 μM, luminescence in V. fischeri ES114 (ΔluxI), ref Palmer et al., 2011 (main ref 44, SI ref 6)
[3] = ref 6 (SI; Palmer et al., 2011)

T1 sequence (P54293 whole entry): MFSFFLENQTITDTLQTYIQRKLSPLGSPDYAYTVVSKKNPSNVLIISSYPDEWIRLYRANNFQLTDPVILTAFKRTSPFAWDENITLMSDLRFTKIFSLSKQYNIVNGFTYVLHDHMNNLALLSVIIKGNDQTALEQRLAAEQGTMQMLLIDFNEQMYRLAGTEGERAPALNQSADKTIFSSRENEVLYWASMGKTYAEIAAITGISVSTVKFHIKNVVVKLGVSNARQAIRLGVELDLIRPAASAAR

Row | Structure (SMILES) | activation at 100 µM (EsaR [1]) [%] | inhibition at 100 µM (EsaR [1]) [%] | ExpR1 antagonism (ExpR1) [%] | ExpR1 [%] (agonism, activation) (ExpR1) | activation at 100 µM (EsaR [2]) [%] | inhibition at 100 µM (EsaR [2]) [%] | ExpR2 antagonism (percent inhibition) (ExpR2; [3]) [%] | ExpR2 [%] (agonism, percent activation) (ExpR2) | LuxR antagonism (LuxR) [%] | LuxR [%] (agonism, activation) (LuxR) | EC50 (EsaR [1]) [µM] | EC50 (EsaR [2]) [µM] | IC50 (ExpR2; previously reported phenotypic reporter data, ref 6 (SI; Palmer et al., 2011)) [µM] | EsaR agonism, in words (EsaR [1]; E. coli EsaR reporters, primary screen at 100 μM)
1 | O=C(Cc1ccccc1F)N[C@H]1CCOC1=O [C4] | -1 | -9 | 44 | 8 | -3 | 15 | 27 | 24 | 49 | 2 |  |  |  | 
2 | O=C(Cc1ccc([N+](=O)[O-])cc1)N[C@H]1CCOC1=O [C13] | 14 | -29 | 44 | 15 | 14 | 12 | 32 | 24 | 47 | 24 |  |  |  | 
3 | O=C(Cc1cccc(Cl)c1)N[C@H]1CCOC1=O [C6] | 49 | -40 | 63 | 49 | 29 | -58 | 54 | 81 | 65 | 61 | ≥ 125 | ≥ 216 |  | 
4 | CCCC(=O)N[C@H]1CCOC1=O [BHL, reference compound] | 26 | -22 | 48 | 0 | 6 | -46 | 19 | 17 | 43 | 0 |  |  |  | 
5 | O=C(Cc1ccc(F)cc1)N[C@H]1CCOC1=O [C2] | 4 | -14 | 64 | 4 | -2 | -50 | 23 | 14 | 59 | 2 |  |  |  | 
6 | CCCCCCCCCCCCCCCC(=O)N[C@H]1CCOC1=O [hDHL, reference compound] | 25 | -11 | 4 | 0 | 22 | -71 | 7 | 11 | 27 | 2 |  |  |  | 
7 | CCCCCCCCCCCC(=O)CC(=O)N[C@H]1CCOC1=O [OtDHL, reference compound] | 16 | -41 | 4 | 1 | 13 | -53 | 7 | 9 | 5 | 4 |  |  |  | 
8 | O=C(Cc1ccc(Br)cc1)N[C@H]1CCOC1=O [K3] | 9 | -24 | 71 | 4 | 18 | -76 | 62 | 25 | 79 | 3 |  |  | 0.85 | 
9 | CCCCCC(=O)N[C@H]1CCOC1=O [HHL, hexanoyl HL, reference compound] | 100 | -96 | 67 | 5 | 98 | -126 | 12 | 94 | 69 | 2 |  |  |  | strongly activated
